Measurements published in article PMC5833756, “A novel ruthenium complex with xanthoxylin induces S-phase arrest and causes ERK1/2-mediated apoptosis in HepG2 cells through a p53-independent pathway” (Cell Death & Disease, 2018).
Where “and” joins values, the source holds several entries; their conditions need not be identical. Equal entries are not always repeated. Where two headings read alike, the source gives them in different places.

Key:
HepG2 cell xenografts = assay: Human hepatocellular carcinoma xenograft model; assay type: in vivo, C.B-17 SCID mice; details: 0.3 mg/kg doxorubicin, 10 mg/kg 5-fluorouracil, i.p. once a day for 21 days
Description: Animals were housed in cages with free access to food and water. All animals were kept under a 12:12 h light-dark cycle (lights on at 6:00 a.m.). The local Animal Ethics Committee approved the experimental protocol (number 06/2015).
HepG2 cells (1 × 10^7 cells per 500 µL) were implanted subcutaneously into the left front armpit of the mice. […] The treatments were initiated one day after the tumor cell injection. The animals were treated intraperitoneally (200 µL per animal) once daily for 21 consecutive days. On the 22nd day, the animals were anesthetized, and peripheral blood samples were collected from the brachial artery. Animals were euthanized by anesthetic overdose, and tumors were excised and weighed.

HT-29 = assay type: cell-based, human
MCF-7 = assay type: cell-based, human
MRC-5 = assay type: cell-based; details: MRC5; MRC-5 (human lung fibroblast, non-cancer), 72 h
HepG2 cells = assay: Gene expression analysis by qPCR array (TaqMan Array Human Molecular Mechanisms of Cancer); assay type: cell-based; design: key to RQ CCND3 gene expression / RQ CDC42 gene expression / RQ DVL1 gene expression / RQ FYN gene expression / RQ KRAS gene expression / RQ MAP2K1 gene expression / RQ MAPK1 gene expression / RQ MAPK14 gene expression / RQ NFKB2 gene expression / RQ RAF1 gene expression / RQ RELA gene expression / RQ BCAR1 gene expression: 2^-ΔΔCT relative quantification vs 0.2% DMSO control (calibrator = 1); details: HepG2, 12 h; RCX 12 µM, DOX 2 µM
Description: HepG2 cells were plated in bottles for cell culture (7 × 10^4 cells/mL). […] The RNA was evaluated by fluorimetry using QuBit (Life Technologies; Camarillo, CA, USA). RNA reverse transcription was performed using a Superscript VILO™ Kit (Invitrogen Corporation; Waltham, MA, USA). A 96-well plate TaqMan® Array Human Molecular Mechanisms of Cancer (ID 4418806, Applied Biosystems^TM, Foster City, CA, USA) was used for the gene expression study by qPCR. The reactions were conducted in an ABI ViiA7 system (Applied Biosystems^TM; Foster City, CA, USA). The cycle conditions comprised 2 min at 50 °C, 20 s at 95 °C, then 40 cycles of 3 s at 95 °C and 30 s at 60 °C. The relative quantification (RQ) of mRNA expression was calculated by the 2^-ΔΔCT method[40] using Gene Expression Suite™ Software (Applied Biosystems^TM), and the cells treated with the negative control (0.2% DMSO) were used as a calibrator. The reactions were normalized by the geometric mean of the RQ of the reference genes GAPDH, 18S and HPRT1. All experiments were performed in DNase/RNase-free conditions.

HL-60 = assay type: cell-based, human

## COc1cccc2c1C(=O)c1c(O)c3c(c(O)c1C2=O)C[C@@](O)(C(=O)CO)C[C@@H]3O[C@H]1C[C@H](N)[C@H](O)[C@H](C)O1 [DOX, doxorubicin]
HepG2 cell xenografts
  reduction of tumor weight: 27.2%
HT-29; HT-29 (human colon adenocarcinoma), 72 h
  IC50: 0.3 µM
HT-29; IC50 HaCAT / IC50 HT-29
  selectivity index (SI): 0.3
HT-29; IC50 MRC5 / IC50 HT-29
  selectivity index (SI): 4.3
HT-29; IC50 PBMC / IC50 HT-29
  selectivity index (SI): 17.3
MCF-7; IC50 HaCAT / IC50 MCF-7
  selectivity index (SI): 0.1
MCF-7; IC50 MRC5 / IC50 MCF-7
  selectivity index (SI): 1.2
MCF-7; IC50 PBMC / IC50 MCF-7
  selectivity index (SI): 4.7
MCF-7; MCF7, MCF-7 (human breast adenocarcinoma), 72 h
  IC50: 1.1 µM
MRC-5
  IC50: 1.3 µM
HepG2 cells
  RQ ABL1 gene expression: 2.628
  RQ AKT1 gene expression: 1.813
  RQ AKT2 gene expression: 3.3 and 3.275
  RQ APC gene expression: 1.780
  RQ BAX gene expression: 0.964
  RQ BCAR1 gene expression: 2.2 and 2.176
  RQ BCL2L1 gene expression: 0.663
  RQ BCL2L11 gene expression: 14.0 and 13.988
  RQ BCL2 gene expression: 1.1 and 1.140
  RQ BID gene expression: 1.433
  RQ BRAF gene expression: 1.0 and 1.012
  RQ CASP8 gene expression: 1.414
  RQ CASP9 gene expression: 0.957
  RQ CCND1 gene expression: 0.8 and 0.820
  RQ CCND3 gene expression: 1.2 and 1.151
  RQ CCNE1 gene expression: 1.535
  RQ CDC42 gene expression: 1.1 and 1.077
  RQ CDK2 gene expression: 4.331
  RQ CDK4 gene expression: 1.4 and 1.427
  RQ CDKN1A gene expression: 2.849
  RQ CDKN1B gene expression: 1.0 and 1.029
  RQ CDKN2A gene expression: 2.0 and 2.027
  RQ CRK gene expression: 2.5 and 2.519
  RQ CTNNB1 gene expression: 2.392
  RQ CYCS gene expression: 0.582
  RQ DVL1 gene expression: 0.5 and 0.539
  RQ E2F1 gene expression: 4.8 and 4.768
  RQ EGFR gene expression: 0.5 and 0.502
  RQ ELK1 gene expression: 2.1 and 2.142
  RQ ERBB2 gene expression: 1.8 and 1.746
  RQ FADD gene expression: 3.100
  RQ FAS gene expression: 2.5 and 2.459
  RQ FGF2 gene expression: 1.9 and 1.914
  RQ FOS gene expression: 1.514
  RQ FYN gene expression: 1.0 and 1.034
  RQ FZD1 gene expression: 5.8 and 5.811
  RQ GRB2 gene expression: 1.030
  RQ GSK3B gene expression: 0.590
  RQ HRAS gene expression: 1.4 and 1.370
  RQ IGF1R gene expression: 1.160
  RQ ITGA2B gene expression: 2.4 and 2.384
  RQ ITGAV gene expression: 2.101
  RQ ITGB1 gene expression: 1.941
  RQ ITGB3 gene expression: 1.707
  RQ JUN gene expression: 7.3 and 7.340
  RQ KRAS gene expression: 2.6 and 2.552
  RQ MAP2K1 gene expression: 2.4 and 2.441
  RQ MAP3K5 gene expression: 1.887
  RQ MAPK1 gene expression: 0.9 and 0.857
  RQ MAPK3 gene expression: 1.561
  RQ MAPK8 gene expression: 1.273
  RQ MAPK14 gene expression: 2.2 and 2.163
  RQ MDM2 gene expression: 0.9 and 0.928
  RQ MYC gene expression: 0.4 and 0.392
  RQ NFKB1 gene expression: 2.0 and 2.017
  RQ NFKB2 gene expression: 3.6 and 3.594
  RQ NFKBIA gene expression: 1.224
  RQ NRAS gene expression: 1.874
  RQ PIK3CA gene expression: 2.854
  RQ PIK3R1 gene expression: 6.207
  RQ PTEN gene expression: 0.476
  RQ PTK2B gene expression: 0.530
  RQ PTK2 gene expression: 1.0 and 0.948
  RQ RAC1 gene expression: 2.048
  RQ RAF1 gene expression: 3.5 and 3.447
  RQ RB1 gene expression: 1.230
  RQ RELA gene expression: 1.1 and 1.074
  RQ RHOA gene expression: 1.270
  RQ SHC1 gene expression: 1.9 and 1.865
  RQ SMAD4 gene expression: 2.6 and 2.601
  RQ SOS1 gene expression: 2.2 and 2.199
  RQ SRC gene expression: 1.036
  RQ TCF3 gene expression: 1.9 and 1.915
  RQ TGFB1 gene expression: 1.413
  RQ TGFBR1 gene expression: 1.403
  RQ TGFBR2 gene expression: 1.094
  RQ TP53 gene expression: 1.0 and 0.945
  RQ VEGFA gene expression: 1.8 and 1.772
HL-60; HL-60 (human promyelocytic leukemia), 72 h
  IC50: 0.2 µM
HL-60; IC50 HaCAT / IC50 HL-60
  selectivity index (SI): 0.5
HL-60; IC50 MRC5 / IC50 HL-60
  selectivity index (SI): 6.5
HL-60; IC50 PBMC / IC50 HL-60
  selectivity index (SI): 26
